{
  "source": "patent US7662593B2",
  "about": "“Activation method of protein derived from extremely thermophilic bacterium in nucleic acid amplification reaction and use thereof” (Aisin Seiki Kabushiki Kaisha, priority 2004, dated 2010)",
  "format_in_all_cases": "biochemical",
  "key": {"T. th. RecA [1]": {"molecular_target": "T1, T. th. RecA (Thermus thermophilus, UniProt Q5SHB2)", "T1 construct": "made in house", "T1 sequence (Q5SHB2 1-340)": "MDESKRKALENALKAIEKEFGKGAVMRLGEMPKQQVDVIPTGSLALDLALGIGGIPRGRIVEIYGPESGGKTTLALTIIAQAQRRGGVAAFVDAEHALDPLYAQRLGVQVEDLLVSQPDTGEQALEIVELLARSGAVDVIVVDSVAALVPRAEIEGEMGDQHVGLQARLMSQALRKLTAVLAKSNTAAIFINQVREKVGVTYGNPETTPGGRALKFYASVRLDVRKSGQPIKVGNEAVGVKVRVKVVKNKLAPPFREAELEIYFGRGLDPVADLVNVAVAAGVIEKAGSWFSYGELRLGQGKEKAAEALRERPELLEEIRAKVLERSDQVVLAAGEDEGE", "test": "PCR with rTaq-HS polymerase: influence of reaction solution composition on T. th. RecA performance, with and without ATP (Example 1)", "conditions": "400 μM ATP plus 0.4 μg T. th. RecA, rTaq buffer, 35 cycles, human genome DNA, Primer Sets 1-6; compared with T. th. RecA only", "experimental": "The PCR amplification reaction was carried out using a human genome DNA as a template and Primer Set 1. Four kinds of PCR reaction solution were prepared as shown below. Specifically, Reaction solution A was prepared by using 1×rTaq buffer (manufactured by Takara Bio Inc.) as a buffer solution, and Reaction solution B was prepared by adding T. th. RecA further to Reaction solution A. Reaction solution C was prepared by using Taq buffer (manufactured by Takara Bio Inc.) as a buffer solution and adding T. th. RecA. Reaction solution D was prepared by adding T. th. RecA and ATP further to Reaction solution A. The composition of each of the reaction solutions is as shown below. As a DNA polymerase, an rTaq-HS polymerase (manufactured by Takara Bio Inc.) was used.\nThe above reaction solutions were thermally denatured at 94° C. for 30 seconds. Thereafter, the amplification reaction was carried out with 35 cycles (1 cycle: at 94° C. for 15 seconds, at 55° C. for 30 seconds and at 72° C. for 90 seconds). Thereafter, the amplification reaction was completed by the final reaction cycle at 72° C. for 3 minutes and at 4° C. for 10 minutes. After the amplification, 10 μl of the reaction solution was subjected to electrophoresis with 1.2% agarose gel. After the electrophoresis, the bands were visualized by staining the gel with ethidium bromide, and then the electrophoresis gel was photographed. […]"}, "T. th. RecA [2]": {"molecular_target": "T1, T. th. RecA", "test": "PCR with rTaq-HS polymerase over 28, 32 or 36 cycles: decrease in T. th. RecA performance, with and without ATP (Example 2)", "conditions": "400 μM ATP plus 0.4 μg T. th. RecA, Taq buffer, 28, 32 or 36 cycles, Primer Sets 7-9; compared with T. th. RecA only", "experimental": "The PCR amplification reaction was carried out using a human genome DNA as a template and Primer Set 7. Two kinds of PCR reaction solution were prepared as shown below. Specifically, Reaction solution E was prepared by adding T. th. RecA only. Reaction solution F was prepared by adding ATP in addition to T. th. RecA. The composition of each of the reaction solutions is as shown below. As a DNA polymerase, an rTaq-HS polymerase was used.\n(§1) The above reaction solutions were thermally denatured at 94° C. for 30 seconds. Thereafter, the amplification reaction was conducted in 28, 32 or 36 cycles (1 cycle: at 94° C. for 15 seconds, at 55° C. for 30 seconds and at 72° C. for 90 seconds). And Thereafter, the amplification reaction was completed by the final reaction cycle at 72° C. for 3 minutes and at 4° C. for 10 minutes. After the amplification, 10 μl of the reaction solution was subjected to electrophoresis with 1.2% agarose gel. After the electrophoresis, the bands were visualized by staining the gel with ethidium bromide, and then the electrophoresis gel was photographed. Furthermore, the same experiment was conducted using Primer Sets 8 and 9."}, "T. th. RecA [3]": {"molecular_target": "T1, T. th. RecA", "test": "PCR with Ex Taq-HS polymerase with T. th. RecA and ATP (Example 3)", "conditions": "400 μM ATP plus 0.4 μg T. th. RecA, 36 cycles, Primer Sets 1-6 and 8, compared with no addition", "experimental": "The PCR amplification reaction was carried out using a human genome DNA as a template and Primer Set 1. Two kinds of PCR reaction solutions were prepared as shown below. Specifically, Reaction solution G was prepared with a composition of a general PCR reaction solution without adding any of T. th. RecA and ATP (Control). Reaction solution H was prepared by adding T. th. RecA and ATP further to Reaction solution G. The composition of each of the reaction solutions is as shown below. As a DNA polymerase, an Ex Taq-HS polymerase was used.\nas §1, with “carried out with” for “conducted in 28, 32 or”, “seconds).” for “seconds). And”, “2, 3, 4, 5, 6” for “8”, “8.” for “9.”"}, "T. th. RecA [4]": {"molecular_target": "T1, T. th. RecA", "test": "PCR with rTaq-HS polymerase with various nucleotide 5'-triphosphates and T. th. RecA (Example 4)", "conditions": "36 cycles; for non-specific amplification in PCR (agarose gel): rTaq buffer", "experimental": "The PCR amplification reaction was carried out using a human genome DNA as a template and Primer Set 1. Seven kinds of PCR reaction solution were prepared as shown below. Specifically, Reaction solution I was a general PCR reaction solution and prepared without adding any of T. th. RecA and nucleotide 5′-triphosphate (Control). Reaction solution J was prepared by adding T. th. RecA to Reaction solution I. Reaction solutions K, L, M and N were prepared by adding GTP, ATP, UTP and CTP to Reaction solution J, respectively. Reaction solution O was prepared by adding only ATP to Reaction solution I without adding T. th. RecA. The composition of each of the reaction solutions is as shown below. As a DNA polymerase, an rTaq-HS polymerase was used.\nas §1, with “carried out with” for “conducted in 28, 32 or”, “seconds).” for “seconds). And”, “2, 3, 4, 5, 6” for “8”, “8.” for “9.”"}, "T. th. RecA [5]": {"molecular_target": "T1, T. th. RecA", "test": "PCR with ExTaq-HS polymerase, effects of primer length, Primer Sets 10-15 (Example 5)", "conditions": "0.4 mM ATP plus 0.4 μg T. th. RecA, 35 cycles, primer base length 20 to 45 (Primer Sets 10-15)", "experimental": "The PCR amplification reaction was carried out using a human genome DNA as a template and the primer sets of various lengths. The primer sets used here were Primer Sets 10, 11, 12, 13, 14 and 15 with the base length of 20, 25, 30, 35, 40 and 45, respectively. Two kinds of PCR reaction solution were prepared as shown below. Specifically, Reaction solution P was prepared by adding T. th. RecA and ATP. Reaction solution Q was prepared similarly to Reaction solution P except that ATP was not added. The composition of each of the reaction solutions is as shown below. As a DNA polymerase, an ExTaq-HS polymerase (manufactured by Takara Bio Inc.) was used.\nThe above reaction solutions were thermally denatured at 94° C. for 30 seconds. Thereafter, the amplification reaction was carried out with 35 cycles (1 cycle: at 94° C. for 15 seconds, at 55° C. for 30 seconds and at 72° C. for 90 seconds). Thereafter, the amplification reaction was completed by the final reaction cycle at 72° C. for 3 minutes and at 4° C. for 10 minutes. After the amplification, 10 μl of the reaction solution was subjected to electrophoresis with 1.2% agarose gel. After the electrophoresis, the bands were visualized by staining the gel with ethidium bromide, and then the electrophoresis gel was photographed."}, "T. th. RecA [6]": {"molecular_target": "T1, T. th. RecA", "test": "PCR with ExTaq-HS polymerase, effects of primer length, Primer Sets 16-21 (Example 6)", "conditions": "0.4 mM ATP plus 0.4 μg T. th. RecA, primer base length 20 to 45 (Primer Sets 16-21)", "experimental": "The PCR amplification reaction was carried out using a human genome DNA as a template and the primer sets of various lengths. The primer sets used here were Primer Sets 16, 17, 18, 19, 20 and 21 with the base lengths of 20, 25, 30, 35, 40 and 45. The same PCR reaction solutions as in Example 5 were used. Specifically, Reaction solution P was prepared by adding T. th. RecA and ATP. Reaction solution Q was prepared similarly to Reaction solution P except that ATP was not added. As a DNA polymerase, an ExTaq-HS polymerase (manufactured by Takara Bio Inc.) was used. Then, the PCR reaction was carried out under the same conditions as in Example 5, then electrophoresis and staining of the electrophoresed gel were conducted, and then photographing was conducted according to the same procedures as in Example 5."}, "T. th. RecA [7]": {"molecular_target": "T1, T. th. RecA", "test": "PCR with T. th. DNA polymerase, combination of T. th. RecA with ATP (Example 7)", "conditions": "35 cycles", "experimental": "PCR amplification by the T. th. DNA polymerase was carried out using a human genome DNA as a template and Primer Set 1. Five kinds of PCR reaction solution were prepared as shown below. Specifically, Reaction solution R was prepared by adding T. th. RecA and ATP. Reaction solution S was prepared similarly to Reaction solution R except that ATP was not added. Reaction solution T was prepared similarly to Reaction solution R except that ATP and T. th. […] Reaction solution U was prepared similarly to Reaction solution R except that T. th. RecA and ATP were not added but a T. th. RecA storage buffer was added instead. Further, Reaction solution V was prepared similarly to Reaction solution R except that T. th. RecA was not added. The composition of each of the reaction solutions is as shown below.\nThe above reaction solutions were thermally denatured at 92° C. for 30 seconds. Then, amplification reaction was carried out with 35 cycles (1 cycle: at 94° C. for 15 seconds, at 55° C. for 30 seconds and at 68° C. for 90 seconds). Thereafter, the amplification reaction was completed by the final reaction cycle at 68° C. for 3 minutes and at 4° C. for 10 minutes. After the amplification, 10 μl of the reaction solution was subjected to electrophoresis with 1.2% agarose gel. […]"}, "T. th. RecA [8]": {"molecular_target": "T1, T. th. RecA", "test": "PCR and multiplex PCR with T. th. DNA polymerase, T. th. RecA and ATP (Example 8)", "conditions": "0.4 mM ATP plus 0.4 μg T. th. RecA", "experimental": "The PCR amplification reaction by the T. th. DNA polymerase was carried out using a human genome DNA as a template. The primer sets used herein were Primer Sets 22, 23, 24, 25, 26, 27, 28, 29, 30, 31, 32, 33, 1 and 2. In addition, multiplex PCR was carried out in which these primer sets were added in one reaction system and amplified. Two kinds of PCR reaction solution were prepared as shown below. Specifically, Reaction solution W was prepared by adding T. th. RecA and ATP. Reaction solution X was prepared similarly to Reaction solution W except that T. th. RecA and ATP were not added but a T. th. RecA storage buffer was added instead.\nThe above reaction solutions were thermally denatured at 92° C. for 30 seconds. Thereafter, the amplification reaction was carried out with 35 cycles (1 cycle: at 94° C. for 15 seconds, at 55° C. for 30 seconds and at 68° C. for 2 minutes). Thereafter, the amplification reaction was completed by the final reaction cycle at 68° C. for 3 minutes and at 4° C. for 10 minutes. After the amplification, 3 μl of the reaction solution was subjected to electrophoresis with 12.5% acrylamide gel. After the electrophoresis, the bands were visualized by staining the gel with cyber green, and then the electrophoresis gel was photographed."}},
  "data": [
    {"smiles": "Nc1ncnc2c1ncn2[C@@H]1O[C@H](COP(=O)(O)OP(=O)(O)OP(=O)(O)O)[C@@H](O)[C@H]1O", "note": "[ATP, adenosine 5′-triphosphate]", "values": [
      {"measurement": "non-specific amplification in PCR (agarose gel)", "setting": "T. th. RecA [1]", "value": "non-specific amplification can be remarkably reduced"},
      {"measurement": "non-specific amplification in PCR (agarose gel)", "setting": "T. th. RecA [2]", "value": "non-specific amplification can be suppressed"},
      {"measurement": "non-specific amplification in PCR (agarose gel)", "setting": "T. th. RecA [3]", "value": "non-specific amplification was suppressed"},
      {"measurement": "non-specific amplification in PCR (agarose gel)", "setting": "T. th. RecA [4]; 400 μM ATP alone, without T. th. RecA, Lanes 43 to 49", "value": "non-specific amplification was not suppressed"},
      {"measurement": "suppression of non-specific amplification, comparison among the NTP and T. th. RecA combinations", "setting": "T. th. RecA [4]; 400 μM GTP, ATP, UTP or CTP plus 0.4 μg T. th. RecA", "value": "suppressed non-specific amplification the most"},
      {"measurement": "non-specific amplification in PCR (agarose gel)", "setting": "T. th. RecA [4]; 400 μM NTP plus 0.4 μg T. th. RecA, Primer Sets 1-6 and 8, compared with T. th. RecA only", "value": "non-specific amplification can be suppressed"},
      {"measurement": "non-specific amplification in PCR (agarose gel)", "setting": "T. th. RecA [5]", "value": "non-specific amplification can be remarkably reduced"},
      {"measurement": "non-specific amplification in PCR (agarose gel)", "setting": "T. th. RecA [6]", "value": "non-specific amplification was remarkably suppressed"},
      {"measurement": "non-specific amplification in PCR (agarose gel)", "setting": "T. th. RecA [7]; 0.4 mM ATP only, without T. th. RecA", "value": "production of non-specific amplification products was found"},
      {"measurement": "non-specific amplification in PCR (agarose gel)", "setting": "T. th. RecA [7]; 0.4 mM ATP plus 0.4 μg T. th. RecA, Primer Sets 1-6 and 8", "value": "non-specific amplification was remarkably suppressed"},
      {"measurement": "non-specific amplification in PCR (acrylamide gel)", "setting": "T. th. RecA [8]; 35 cycles, single primer sets 22-33, 1 and 2 (Lanes 1 to 14)", "value": "non-specific amplification was remarkably suppressed"},
      {"measurement": "specific amplification in multiplex PCR (acrylamide gel)", "setting": "T. th. RecA [8]; all 14 primer sets in one reaction system (Lane 15)", "value": "the target sequences corresponding to each of the primer sets were specifically amplified"}
    ]}
  ]
}
